In patent US20060275854A1, “Method for monitoring reactions in real time” (priority 2003, published 2006):
Entries after “also recorded” stand apart in the source; their conditions may differ. Values belong to the compound of their own block, whether it stands above or below them.

How the values were obtained:
calf intestine ALP = conditions: known; cited from earlier work
porcine ALP [1] = conditions: known inhibitors; cited from earlier work
porcine ALP [2] = conditions: 0.1 mM compound, 0.75 mM AMP, FIG. 5A
Protocol: The resulting mixture was incubated for another 10 min, followed by the addition of 5 units of porcine ALP (resulting in a concentration of 0.01 units/μL) and further incubation for 75 more minutes. The fluorescence intensity (FALP) was monitored continuously. For the same compound, the fluorescence intensity (FNoALP) of a control reaction with the addition of porcine ALP was also recorded in the same way.

[3] = tested on: anti-ATP signaling aptamer; assay: Fluorescence signaling of the structure-switching ATP aptamer reporter on target addition; format: binding; conditions: for fluorescence intensity increase over the background reading: 750 μM target, FIG. 1B
[4] = tested on: Adenosine Deaminase (ADA); assay: Adenosine deaminase activity and inhibition monitored by signaling aptamer; format: biochemical
Protocol: Adenosine deaminase transforms adenosine into inosine. […] Thus conversion from adenosine to inosine results in a decrease in fluorescent signal. […] EHNA is a known inhibitor of adenosine deaminase.
After 3 minutes, different concentrations of EHNA.HC1, an adenosine deaminase inhibitor, in DMSO were introduced: no inhibitor (blue line), 100 nM inhibitor (green line) and 10 μM inhibitor (red line). The solutions were further incubated for 5 more minutes. […] Finally, the solutions were exposed to an enzyme, called Adenosine Deaminase (ADA), which transforms adenosine into inosine. The aptamer has no affinity for the inosine, so the transformation should induce the disruption of the aptamer—adenosine complex state and the formation of a duplex state with the QDNA.

Structure (SMILES): Cl.c1ccc(C2CN3CCSC3=N2)cc1 (racemic) [Tetramisole, (±) 2,3,5,6-Tetrahydro-6-phenylimidazo[2,1-b]thiazole hydrochloride]
- inhibition of calf intestine ALP (in words) (calf intestine ALP): not calf intestine ALP
- Ki (porcine ALP [1]): low mM range
- rate of transformation of AMP to adenosine relative to the uninhibited reaction (porcine ALP [2]): considerably reduced

Structure (SMILES): Cl.c1ccc(C2CN3CCSC3=N2)cc1 (single isomer, unassigned; (-)) [Levamisole, (−) 2,3,5,6-Tetrahydro-6-phenylimidazo[2,1-b]thiazole hydrochloride]
- inhibition of calf intestine ALP (in words) (calf intestine ALP): not calf intestine ALP
- Ki (porcine ALP [1]): low mM range
- rate of transformation of AMP to adenosine relative to the uninhibited reaction (porcine ALP [2]): considerably reduced

Structure (SMILES): Nc1ncnc2c1ncn2[C@@H]1O[C@H](COP(=O)(O)OP(=O)(O)O)[C@@H](O)[C@H]1O [ADP, adenosine 5′-diphosphate]
- fluorescence intensity increase over the background reading [3]: 8.3 fold

Structure (SMILES): Nc1ncnc2c1ncn2[C@@H]1O[C@H](COP(=O)(O)O)[C@@H](O)[C@H]1O [AMP, adenosine 5′-monophosphate]
- affinity of the signaling aptamer for the substance (in words) [3]: moderate affinity
- fluorescence intensity increase over the background reading [3]: 5.3 fold

Structure (SMILES): Nc1ncnc2c1ncn2[C@@H]1O[C@H](COP(=O)(O)OP(=O)(O)OP(=O)(O)O)[C@@H](O)[C@H]1O [ATP, adenosine 5′-triphosphate]
- fluorescence intensity increase over the background reading [3]: 6.9 fold

- rate of deamination ([4]; 100 nM inhibitor, 1 mM adenosine): slower
- rate of deamination ([4]; 10 μM inhibitor, 1 mM adenosine): virtually stopped
- rate of deamination ([4]; 10 μM inhibitor, 1 mM adenosine, listed as EHNA.HC1): almost no deamination
- rate of deamination ([4]; 100 mM EHNA, FIG. 6): reduced
Structure (SMILES): CCCCCC[C@@H]([C@@H](C)O)n1cnc2c(N)ncnc21.Cl [EHNA]

Structure (SMILES): Nc1ncnc2c1ncn2[C@@H]1O[C@H](CO)[C@@H](O)[C@H]1O [adenosine]
- affinity of the signaling aptamer for the substance (in words) [3]: higher affinity
- fluorescence intensity increase over the background reading [3]: 8.1 fold

Structure (SMILES): OC[C@H]1O[C@@H](n2cnc3c(O)ncnc32)[C@H](O)[C@@H]1O [inosine]
- affinity of the signaling aptamer for the substance (in words) [3]: virtually no affinity; also recorded: no affinity at all
